Conditions: for logD: pH 7.4

Row | Structure (SMILES) | logP | logD
1 | CCC1(c2ccccc2)NC(=O)N(C)C1=O (stereo not drawn) | 1.69 | 
2 | COc1ncnc2c1ncn2C1OC(CO)C(OC(=O)C(C)(C)C)C1OC(=O)C(C)(C)C (stereo not drawn) | 3.61 | 
3 | CN(c1ccccc1)S(C)(=O)=O | 1.02 | 
4 | CCOC(=O)c1cnc2n(c1=O)CCC(C)C2 (stereo not drawn) | 0.66 | 
5 | COc1ccc2c3c1O[C@H]1[C@@H](O)C=C[C@H]4[C@@H](C2)N(C)CC[C@@]341.O=P(O)(O)O |  | -1.4
6 | NC(=O)c1cnc2n(c1=O)CCCC2 | -0.38 | 
7 | CN1CCN(Cc2ncc([N+](=O)[O-])n2C)CC1 | -0.32 | 
8 | COc1ccc(OCC(OC(=S)n2ccnc2)C(C)(C)C)cc1 (stereo not drawn) | 4.31 | 
9 | Cn1c(=O)c2[nH]c(Cl)nc2n(C)c1=O |  | -0.85
10 | CC(CCC(=O)NCc1ccccc1)C1CCC2C3C(O)CC4CC(O)CCC4(C)C3CC(O)C12C (stereo not drawn) | 3.54 | 
11 | O=P(OCC(Br)CBr)(OCC(Br)CBr)OCC(Br)CBr (stereo not drawn) | 4.29 | 
12 | CC(CN1CCCCC1)C(=O)c1ccccc1 (stereo not drawn) | 3.51 | 
13 | C[C@H](CN1CCOCC1)C(C(=O)N1CCCC1)(c1ccccc1)c1ccccc1 | 3.61 | 
14 | CCCCSc1nnc(C(C)C)c(=O)n1N | 3.21 | 
15 | COC(=O)C1CC2C3CCC4=CC(=O)C=CC4(C)C3C(O)CC2(C)C1C(=O)CO (stereo not drawn) | 1.7 | 
16 | COC(=O)NC1=NCC(c2ccc(C=O)cc2)N1C (stereo not drawn) | 0.74 | 
17 | CN(Cc1cccc(Br)c1)N=O | 1.65 | 
18 | CCN(CC)CCC(=O)c1sc(N)nc1C | 1.76 | 
19 | CCCCCCCCN(C)N=Nc1[nH]cnc1C(N)=O | 3.22 | 
20 | CSc1nnc(C2CCOCC2)c(=O)n1N | 1.07 | 
21 | Cc1ccc2nc3c(c(=O)n2c1)CCC3 | 1.63 | 
22 | O=c1[nH]c(=O)n(C2OC(CO)CC2F)cc1F (stereo not drawn) | -0.72 | 
23 | CNC(=S)NCCCCc1nc[nH]c1C | 0.85 | 

Row | Structure (SMILES) | logP | logD
24 | Fc1ccccc1C1=NCC(=S)N(CC(F)(F)F)c2ccc(Cl)cc21 | 4.03 | 
25 | CC(=O)n1c(=O)[nH]cc(F)c1=O | -0.34 | 
26 | CCCCCCCO | 2.62 | 
27 | CC=COCC(O)Cn1ccnc1[N+](=O)[O-] (stereo not drawn) | 0.28 | 
28 | CC(C)(C)c1ccc(C2CCCC(O)C2)c(O)c1 (stereo not drawn) | 4.05 | 
29 | CC(C)(C)c1ccc(OCC(OC(=O)n2ccnc2)C(C)(C)C)cc1 (stereo not drawn) | 4.82 | 
30 | CN(C)C(=O)OCc1ccc(C(N)=O)cc1 | 0.77 | 
31 | CCCCCN(C)C(=O)c1cccc(Oc2ccccc2)c1 | 4.43 | 
32 | COc1cc(C(N)=O)ccc1-c1cn2cccnc2n1 | 0.7 | 
33 | CCOC(=O)NC1=NCC(c2ccc(CO)cc2)N1C (stereo not drawn) | 0.84 | 
34 | CCOC(=O)c1cnc2n(c1=O)CC(C)CC2 (stereo not drawn) | 0.71 | 
35 | CCCCCn1ccc(=O)c(O)c1C | 1.24 | 
36 | COC(=O)C(C#N)=Cc1ccc(SC)o1 | 2.61 | 
37 | CC1c2nc3ccccc3c(=O)n2CN1c1ccccc1 (stereo not drawn) | 1.79 | 
38 | CNC12CCCCC1CC(O)c1ccccc12 (stereo not drawn) | 1.84 | 
39 | CC(C(O)c1ccccc1)N(C)C (stereo not drawn) | 1.7 | 
40 | Cc1ccc(C(N)=S)cc1 | 2.01 | 
41 | O=C(O)Cc1ccc(C(=O)O)cc1 | 1.24 | 
42 | CCN(CC)C(=O)c1ccccc1C | 2.02 | 
43 | CC(n1ccnc1)C(O)(c1ccc(F)cc1)c1ccc(F)cc1 (stereo not drawn) | 3.13 | 
44 | Cc1c(O)c(=O)ccn1C(C)C | 0.05 | 
45 | CCCCc1ccc(OCC(OC(=O)n2ccnc2)C(C)(C)C)cc1 (stereo not drawn) | 4.97 | 
46 | CCC(C(=O)OCc1ccc(C)cc1)C(CO)Cc1cncn1C (stereo not drawn) | 2.46 | 

Row | Structure (SMILES) | logP | logD
47 | CCOc1ccc(OCC(OC(=O)n2ccnc2)C(C)(C)C)cc1 (stereo not drawn) | 3.86 | 
48 | COC1N(C2CC(F)C(CO)O2)C(=O)NC(=O)C1(C)Cl (stereo not drawn) | 0.18 | 
49 | CCOCCCn1ccc(=O)c(O)c1CC | 0.72 | 
50 | CCCN1CCOC2c3cc(O)ccc3OCC21 (stereo not drawn) | 1.97 | 
51 | CCCN(C)CC(F)(F)F | 2.18 | 
52 | Cc1ncc([N+](=O)[O-])n1CC(O)Cn1c([N+](=O)[O-])cnc1C | 0.31 | 
53 | CC1=NS(=O)(=O)c2cc(S(N)(=O)=O)c(Cl)cc2N1 | 0.03 | 
54 | NC(=O)NCCCCCCn1nc(-c2ccccc2)ccc1=O | 1.82 | 
55 | CC(C)(C)OC(=O)C(C(=O)OC(C)(C)C)=C1SCCS1 | 4.01 | 
56 | CC(=O)Nc1ccc(Cl)cc1 | 2.09 | 
57 | Nc1ccc(C(=O)O)cc1F | 1.41 | 
58 | O=c1[nH]c(=O)n(-c2ccc(Cl)cc2Cl)cc1F | 1.96 | 
59 | Clc1ccc(-c2ccc(Cl)c(Cl)c2Cl)cc1Cl | 6.79 | 
60 | NCC1(CC(=O)O)CCCCC1 | -1.1 | 
61 | O=c1c2ccccc2nc2n1CCCC2 | 1.52 | 
62 | CNC(=O)c1cccc(Oc2ccccc2)c1 | 2.86 | 
63 | Cc1c(C(C)C)c(=O)n(-c2ccccc2)n1C | 1.94 | 
64 | Cc1ccc2nccc(=O)n2c1 | 0.61 | 
65 | CC(C(=O)CCN(C)C)N1C(=O)C2CC=CCC2C1=O (stereo not drawn) | 0.77 | 
66 | O=C1CNC(=O)N1Cc1ccccc1 | 0.82 | 
67 | c1ccc(C2(N3CCCCC3)CCCCC2)cc1 | 4.69 | 
68 | CCCCCCCOC(=O)c1cc(=O)[nH]c(=O)[nH]1 | 2.15 | 
69 | Cc1cc(O)c(N(C)C)nn1 | 0.24 | 

Row | Structure (SMILES) | logP | logD
70 | NS(=O)(=O)c1cc2c(cc1Cl)NC(c1ccccc1)=NS2(=O)=O | 1.4 | 
71 | O=c1c2c(nc3n1CCC3)CCCC2 | 0.83 | 
72 | Cc1cc(=O)c(=O)[nH][nH]1 | -0.3 | 
73 | CCOP(=O)(OCC)SCS(=O)C(C)(C)C (stereo not drawn) | 2.66 | 
74 | COc1cccc(C2C(=O)c3ccccc3C2=O)c1 | 2.88 | 
75 | Nc1ncn(C2OC(CO)C(O)C2O)c(=O)n1 (stereo not drawn) | -2.17 | 
76 | O=c1[nH]c(=O)n(C2OC(CO)CC2F)cc1Cl (stereo not drawn) | -0.28 | 
77 | CC(=O)N(C)C1=NC(=O)C(=Cc2ccc([N+](=O)[O-])o2)S1 | 1.05 | 
78 | COc1cccc2c1C(=O)c1c(O)c3c(c(O)c1C2=O)CC(O)(C(C)=O)CC3OC1CC(NC(=O)CN(C)C)C(O)C(C)O1 (stereo not drawn) | 1.26 | 
79 | NCCc1cn2ccccc2n1 | 0.59 | 
80 | CC(C)(C)C(COc1ccc(-c2ccccc2)cc1)OC(=O)n1ccnc1 (stereo not drawn) | 4.56 | 
81 | O=C(O)CCCOc1cccc2ccccc12 | 3.5 | 
82 | COc1ccc(Cn2cc(F)c(=O)[nH]c2=O)cc1 | 1.04 | 
83 | CC(C)(C)C(COc1ccccc1)OC(=S)n1ccnc1 (stereo not drawn) | 4.27 | 
84 | CCOCCCn1ccc(=O)c(O)c1C | 0.12 | 
85 | CCC(C)(C)c1ccc(CC(=O)O)cc1 | 3.48 | 
86 | CC(C)(C)C(COc1ccc(I)cc1)OC(=O)n1ccnc1 (stereo not drawn) | 4.3 | 
87 | CC(C)c1ccc(C2C(=O)c3ccccc3C2=O)cc1 | 4.43 | 
88 | CC(C)COC(=O)N(C)C | 2 | 
89 | COc1cccc(C2(O)CCCCC2CN(C)C)c1 (stereo not drawn) | 2.51 | 
90 | NS(=O)(=O)c1cc2c(cc1C(F)(F)F)NC=NS2(=O)=O | 0.32 | 
91 | CCN(CC)CCCN1c2ccccc2Sc2ccc(Cl)cc21 | 6.46 | 
92 | CCCC(=O)OCC1OC(n2cc(F)c(=O)[nH]c2=O)CC1OC(=O)CCC (stereo not drawn) | 1.9 | 

Row | Structure (SMILES) | logP | logD
93 | C[C@]12CCC(=O)C=C1CC[C@@H]1[C@@H]2CC[C@@]2(C)[C@H]1CC[C@]2(O)C(=O)CO | 3.08 | 
94 | CON1C(=O)CC2(CCCC2)C1=O | 1.15 | 
95 | COc1ccc2c(c1)[nH]c1c(C)nccc12 | 3.56 | 
96 | NC(=S)c1ccc([N+](=O)[O-])cc1 | 1.75 | 
97 | CCCOc1ccc(OCC(OC(=O)n2ccnc2)C(C)(C)C)cc1 (stereo not drawn) | 4.1 | 
98 | CSc1ncnc2c1ncn2[C@@H]1O[C@H](CO)[C@@H](O)[C@H]1O | 0.09 | 
99 | COC(=O)NC1=NCC(c2ccccc2Cl)N1C (stereo not drawn) | 2.08 | 
100 | CCOc1cccc(-c2nnc(C)n(NC)c2=O)c1 | 1.91 | 
101 | NS(=O)(=O)c1ccc(Cl)cc1 | 1.15 | 
102 | CNC(=O)c1cccc(Oc2cc(C)ccc2C)c1 | 3.76 | 
103 | FC(F)(F)c1nc2c(Cl)c(Cl)c(Cl)cc2[nH]1 | 3.87 | 
104 | CC(=O)NN1CC=CCC1 | 0.52 | 
105 | CCCc1c2oc(C(=O)O)cc(=O)c2cc2c(=O)cc(C(=O)O)n(CC)c12 | 2.22 | 
106 | CCC(C(=O)OCc1ccccc1)C(COC(=O)Cc1ccccc1)Cc1cncn1C (stereo not drawn) | 4 | 
107 | CCCC(=O)N1CCCC1=O | 1.18 | 
108 | CCOC(=O)NC1=NCC(c2cccc(C)c2C)N1C (stereo not drawn) | 2.57 | 
109 | O=C1NC(Cc2ccccc2)C(=O)N1Cc1ccccc1 (stereo not drawn) | 2.84 | 
110 | Cc1nn(-c2ccccc2)c(Nc2ccc([N+](=O)[O-])cc2)c1[N+](=O)[O-] | 2.78 | 
111 | CC1NC(=O)NC1=O (stereo not drawn) | -0.91 | 
112 | C=CC(=O)OCCOCCOCCOCCOC(=O)C=C | 1.26 | 
113 | CC(C)c1ccc(OCC(OC(=O)n2ccnc2)C(C)(C)C)cc1 (stereo not drawn) | 4.77 | 
114 | COc1ccccc1/C=C/C(=O)O | 2.54 | 
115 | CC(C)(C)C(COc1ccc(-c2ccccc2)cc1)OC(=S)n1ccnc1 (stereo not drawn) | 6.06 | 

Row | Structure (SMILES) | logP | logD
116 | Cc1nc2ccccn2c(=O)c1C | 1 | 
117 | COC1CC(OC2CCC3(C)C2CCC2C3CCC3(C)C(C4=CC(=O)OC4)CCC23O)OC(C)C1O (stereo not drawn) | 2.37 | 
118 | O=[N+]([O-])c1ccccc1O[C@@H]1O[C@H](CO)[C@@H](O)[C@H](O)[C@H]1O | -0.78 | 
119 | O=C1C=CC(=O)c2c(O)ccc(O)c21 | 1.79 | 
120 | CCCCC(=O)OC1C(CO)OC(n2cnc3c(OC)ncnc32)C1OC(=O)CCCC (stereo not drawn) | 3.83 | 
121 | O=[N+]([O-])c1ccc(Oc2ccc(Cl)cc2Cl)cc1 | 4.64 | 
122 | CCCCCCn1ccc(=O)c(O)c1C | 1.9 | 
123 | CCOC(=O)C=C1NC(=O)C(N2CCCCC2)S1 (stereo not drawn) | 2.34 | 
124 | O=C(CCN1CCCCC1)CN1C(=O)CC(c2ccc(Cl)cc2)C1=O (stereo not drawn) | 2.23 | 
125 | CNc1nc(C)c(C(=O)CCN2CCCC2)s1 | 1.86 | 
126 | CC(C)c1cccc(C2C(=O)c3ccccc3C2=O)c1 | 4.43 | 
127 | C=C[C@H]1CN2CCC1C[C@@H]2[C@@H](O)c1ccnc2ccccc12 (stereo partly drawn) | 2.68 | 
128 | CCN(CC)c1cccc(S(=O)(=O)[O-])c1.[Na+] | -1.6 | 
129 | CCOP(=O)(OCC)SCS(=O)(=O)C(C)(C)C | 2.76 | 
130 | CC1(C)S[C@@H]2[C@H](NC(=O)[C@H](N)c3ccccc3)C(=O)N2[C@H]1C(=O)O | 1.35 | 
131 | Cc1onc(-c2ccccc2Cl)c1C(=O)NC1C(=O)N2C1S(=O)C(C)(C)C2C(=O)O (stereo not drawn) | 2 | 
132 | NS(=O)(=O)c1cc2c(cc1Cl)NC(C(Cl)Cl)NS2(=O)=O (stereo not drawn) | 0.62 | 
133 | CCc1ccc(OCC(OC(=S)n2ccnc2)C(C)(C)C)cc1 (stereo not drawn) | 5.09 | 
134 | Cc1onc(-c2ccccc2Cl)c1C(=O)NC1C(=O)N2C1SC(C)(C)C2C(=O)O (stereo not drawn) | 2.48 | 
135 | O=C(O)c1cc(O)nc(O)n1 | -0.83 | 
136 | O=C(O)CCCCOc1cccc2ccccc12 | 4 | 
137 | CC(=O)OCC1=C(C(=O)O)N2C(=O)C(NC(=O)Cc3cc4ccccc4s3)C2SC1 (stereo not drawn) | 1.68 | 
138 | NS(=O)(=O)c1cc2c(cc1[N+](=O)[O-])N=CNS2(=O)=O | 0.08 | 
